The values below are quoted from earlier work in patent US10420763B2, “Sublingual apomorphine” (Sunovion Pharmaceuticals Inc., priority 2009, dated 2019).

Structures are written as SMILES.

The data set has as its system Parkinson's patients.

For the molecule `CN1CCc2cccc3c2[C@H]1Cc1ccc(O)c(O)c1-3` [apomorphine], the “adverse effects of intranasal administration” value (intranasal administration (Koller et al. 2004)) is “transient nasal blockage, burning sensation and swollen nose and lips”. In addition, the “common side effect of subcutaneous injection” value (subcutaneous injection (Prietz et al. 1998)) was “development of nodules, which often become infected”. For the same molecule, the “adverse effects of sublingual tablets” value (sublingual administration of apomorphine tablets, prolonged use (Deffond et al. 1993)) is given as “severe stomatitis on prolonged use with buccal mucosal ulceration in half the patients treated”.
